These results are taken from PubChem BioAssay AID1996.

Molecules are shown by their SMILES. In brackets after ≈: the same amount, converted by molar mass. Bounds are passed on as bounds.

For the series the following is noted: buffer; pH 7.4; 200.0 µM.
One may read the kinetic solubility as the concentration staying in solution when a stock, usually in DMSO, is diluted into the medium. Turning to `O=C(COC(=O)c1cccc(S(=O)(=O)N2CCOCC2)c1)NCc1ccccc1`, the solubility (kinetic) was above 62.8 µg/mL. `CN(Cc1cccc(F)c1)C(=O)C1CC(=O)N(c2ccc3c(c2)OCCO3)C1` (stereo unspecified) showed a solubility (kinetic) above 57.7 µg/mL. `O=C1NC(=Nc2ccccc2)CS1` showed a kinetic solubility above 28.8 µg/mL.

Take `Cl.NC(Cc1ccccc1)C(=O)N1CCCCC1` (stereo unspecified): the kinetic solubility was above 40.3 µg/mL.

`Cc1cc(=O)n2c(n1)NC(=NCc1ccccc1)NC2c1ccccc1` (stereo unspecified) had a solubility (kinetic) above 51.8 µg/mL. Then `CN1CCN(Cc2cc(=O)n3ccsc3n2)CC1`, with 35.7 µg/mL (≈ 135 µM).

Compound `Cc1cc(C)n2nc(SCC(=O)Nc3ccc(F)cc3[N+](=O)[O-])nc2n1` came in with a kinetic solubility above 56.5 µg/mL. Compound `COc1ccc(C(=O)NCC(C)(C)CNC(=O)c2ccc(OC)cc2)cc1` had a kinetic solubility of 11 µg/mL (≈ 29.7 µM). In turn, `O=C(O)c1ccccc1-c1ccccc1C(=O)Nc1cccc(Br)c1` registered a kinetic solubility of 53.6 µg/mL (≈ 135 µM). As to `COc1cccc(CNC(=O)c2csc3c2CCCC3)c1`, the solubility (kinetic) came out at 19.5 µg/mL (≈ 64.7 µM).

Consider `COc1ccc(CCN2C(=O)CC(C(N)=O)SC2=Nc2ccccc2)cc1` (stereo unspecified), for which the kinetic solubility came out at 44.5 µg/mL (≈ 116 µM). Regarding `Cc1cccc(OCC(=O)NCCNC(=O)c2ccco2)c1`, the solubility (kinetic) was 45 µg/mL (≈ 149 µM). `CS(=O)(=O)N1CCC(C(=O)N2CCN(Cc3ccccc3)CC2)CC1` yielded a kinetic solubility above 54.8 µg/mL. `O=C(CN1CCN(c2ccccn2)CC1)Nc1ccc(F)c(F)c1` gave a kinetic solubility above 49.9 µg/mL. The compound `c1ccc2cc(Cn3ccnc3)ccc2c1` had a solubility (kinetic) of 28.5 µg/mL (≈ 137 µM).

`CCOC(=O)c1cncc(O)c1`: the solubility (kinetic) is above 25.1 µg/mL. Regarding `CC(NC(=O)NC(=O)c1cccc([N+](=O)[O-])c1)C1CC1` (stereo unspecified), the kinetic solubility was 3.8 µg/mL (≈ 13.7 µM). For `COC(=O)c1sccc1NC(=O)Nc1ccc(C)c(C)c1`, the kinetic solubility was 20.7 µg/mL (≈ 68 µM). For `COc1ccccc1Nc1nc(N)nc(CN2CCC(C)CC2)n1`, the kinetic solubility is above 49.3 µg/mL. The compound `CC(=O)N1C[C@H](O)C[C@H]1C(=O)O` registered a kinetic solubility above 26 µg/mL. As to `CC(C)(C)NCC(O)COc1cccc2[nH]c(=O)[nH]c12.Cl` (stereo unspecified), the kinetic solubility is above 47.4 µg/mL. Then `COc1ccc(Nc2nc3cc(C)ccc3cc2C#N)cc1`, with below 0.2 µg/mL. With `CC(C)c1ccc(N)c(S(=O)(=O)O)c1`, the solubility (kinetic) was above 32.3 µg/mL. `CC(Sc1nnc(Cc2ccccc2)o1)C(=O)NC1(C#N)CCCCC1` (stereo unspecified) returned a solubility (kinetic) above 55.6 µg/mL. The compound `Cc1c(NS(=O)(=O)c2cccs2)cccc1-c1nc2cccnc2s1` returned a kinetic solubility of 2.4 µg/mL (≈ 6.19 µM). The same measure for `CCn1c(=O)c(C(=O)CN(C)CC(=O)Nc2cccc(F)c2)c(N)n(Cc2ccccc2)c1=O`: 15.6 µg/mL (≈ 33.4 µM); for `O=C1Nc2ccc(Cl)cc2C12OCCCO2`: 3.2 µg/mL (≈ 13.4 µM). Then `CCOC(=O)C1CCN(c2ncnc3cc(OC)c(OC)cc23)CC1`, with 51.3 µg/mL (≈ 149 µM); and `O=S(=O)(Nc1ccccc1O)c1cccc2cccnc12`, with 43 µg/mL (≈ 143 µM). Take `CCOc1ccc(NC(=O)NCc2cccn2C)cc1`: the solubility (kinetic) is 9.2 µg/mL (≈ 33.7 µM). `COc1cccc(C(=O)OCCNC(=O)c2cccnc2)c1.Cl` had a solubility (kinetic) of 43.3 µg/mL. `CN(C)c1cccc(NC(=O)c2cccc3ccccc23)c1` returned a kinetic solubility of 6.1 µg/mL (≈ 21 µM).

Turning to `COc1cc(OC)nc(Oc2cccc(Cl)c2C)n1`, the solubility (kinetic) is 1.5 µg/mL (≈ 5.34 µM). Then `Cc1ccc(S(=O)(=O)N2CCC(C(=O)OCC(=O)NCc3cccc(Cl)c3)CC2)cc1C`, with 11 µg/mL (≈ 23 µM); and `COc1ccccc1C(=O)NCCNC(=O)c1ccc(C)nc1`, with 45.7 µg/mL (≈ 146 µM). Turning to `O=C(COC(=O)C12CC3CC(CC(Br)(C3)C1)C2)Nc1c(F)cccc1F`, the kinetic solubility turned out to be 16.1 µg/mL (≈ 37.6 µM). For `COc1ccc2[nH]cc(S(=O)(=O)c3ccc(C)cc3)c2c1`, the kinetic solubility amounted to 30.2 µg/mL (≈ 100 µM).

Compound `CCCC(=O)Nc1nc2c(C)c(Cl)ccc2s1` yielded a kinetic solubility below 0.3 µg/mL. `Cc1cc(Oc2ccc(Cl)cc2)nc(-c2ccccn2)n1`: the kinetic solubility turned out to be 38.4 µg/mL (≈ 129 µM). The compound `O=C(c1ccc2c(c1)OCO2)C1CCCN(Cc2ccccn2)C1` (stereo unspecified) returned a solubility (kinetic) of 32.8 µg/mL (≈ 101 µM). For `Cn1c(=O)c2c(nc(SCc3ccc(F)cc3)n2C)n(C)c1=O`, the kinetic solubility is 2 µg/mL (≈ 5.98 µM).
